For nine compounds, IC50 results are on record in ChEMBL document CHEMBL5120802, “Kumemicinones A-G, Cytotoxic Angucyclinones from a Deep Sea-Derived Actinomycete of the Genus Actinomadura” (J Nat Prod, 2022).

The structures appear in SMILES notation.

This assay is described as follows: Cytotoxicity against mouse P388 cells assessed as reduction in cell viability measured after 72 hrs by XTT assay. As to conditions: P388, 72 h. The assay is classed as functional, cell-based.
Consider `CC1=C[C@@H]2O[C@]34CC[C@](O)(C1)[C@H]2[C@]3(O)[C@@H](O)c1cccc(O)c1C4=O`, for which the IC50 was 28.6 µM.
Regarding `CC1=C[C@@H](O)[C@H]2[C@](O)(CC[C@]3(Oc4cccc5c4C(=O)[C@]46CC[C@]7(O)CC(C)=C[C@@H](O)[C@@H]7[C@]4(O6)[C@H]5O)C(=O)c4c(O)cccc4[C@H](O)[C@@]23O)C1`, the concentration for half-maximal inhibition (IC50) stood at 9.7 µM.
`CC1=CC(=O)C2=C3[C@@H](O)c4cccc(O)c4C(=O)[C@]3(O)CC[C@]2(O)C1`: the IC50 was 12 µM.
Regarding `C[C@@]1(O)C=C[C@H]2[C@](O)(CC[C@]34O[C@]23[C@@H](O)c2cccc(O)c2C4=O)C1`, the IC50 is 7.6 µM.
Under `CC1=C[C@@H](O)[C@H]2[C@](O)(CC[C@]34O[C@]23[C@@H](O)c2cccc(O[C@]35CC[C@]6(O)C[C@@](C)(O)C=C[C@@H]6[C@]3(O)[C@@H](O)c3cccc(O)c3C5=O)c2C4=O)C1` stands 10.7 µM.
In the case of `C[C@]1(O)C=C[C@H]2[C@](O)(CC[C@]34O[C@]23[C@@H](O)c2cccc(O)c2C4=O)C1`, the IC50 worked out at 1.8 µM.
The same measure for `CC1=C[C@@H](O)[C@@H]2C(=O)[C@@]3(CC[C@]2(O)C1)C(=O)c1c(O)cccc1[C@H]3O`: 53.3 µM; for `CC1=C[C@@H](O)[C@H]2[C@](O)(CC[C@]34O[C@]23[C@@H](O)c2cccc(O)c2C4=O)C1`: 1.7 µM.
For the compound `Cc1ccc2c(c1)CC[C@]1(S[C@]34CCc5cc(C)ccc5[C@]3(O)[C@@H](O)c3cccc(O)c3C4=O)C(=O)c3c(O)cccc3[C@H](O)[C@@]21O`, the IC50 was found to be 6.1 µM.

The IC50 is the midpoint of a concentration-inhibition curve.
